How the values were obtained:
DRG neurons [1] = experiment: Axon elongation of cultured DRG neurons treated with inhibitor compounds; type: cell-based, mouse; settings: for axon regrowth / axon regeneration in DRG neuron culture: one day after compound treatment, A-922500 500 nM, pradigastat 1 μM, PF combination 10 μM each; for axon elongation in dissociated primary DRG neuron culture: Atglistatin 10 μM, KLH-45 10 μM (figure legend), vs DMSO vehicle
Procedure: DRG primary culture and replating were performed as previously described. In brief, for primary culture, L4-L6 DRGs from 7-8 weeks wild-type mice of both genders were dissected and then digested in 0.5% collagenase for 1.5 h. After termination of digestion, DRGs were pipetted 20-30 times in a tube for complete dissociation. Neurobasal-A with B27 as a supplement was used as a medium for DRG culture. Virus was added at 1 day in vitro (DIV1) for genetic manipulation. […]
For replating DRG neuron culture, at DIV9-11 of primary DRG culture, cells were gently pipetted on culture dishes. Cells were flushed by 20-30 rounds of pipetting in each well of a 6-well plate. After all the cells were resuspended, they were replated onto a 24-well plate. Fixation and staining were performed 24 h after replating. Tuj1 staining was used to visualize axons and cell bodies of neurons. The lengths of the longest neurites from each DRG neuron were measured manually by NeuronJ in ImageJ. Average lengths of 10-20 neurites from 3 individual mice were used in each group.
In the final step of the glycerol phosphate pathway DGAT enzymes catalyze DGs into TGs. To assess the effect of blocking the DGAT enzyme, commercially available, DGAT1 inhibitors were used in culture. A-922500 (500 nM) and pradigastat (1 μM) were individually tested in a culture medium of DRG neurons. A combination of PF-06424439 (10 μM) and PF-046201101 (10 μM) was also tested in a culture medium of DRG neurons. […] Then, a KD experiment was performed by transfecting Dgat1 shRNA (shDgat1) targeting SEQ ID NO: 8, Dgat2 shRNA (shDgat2) targeting SEQ ID NO: 9 into DRG neurons. […] Because axotomy increases Lipin1 expression in RGCs, a study was conducted to determine whether DGAT enzymes were also regulated by axonal injury.

DRG neurons [2] = experiment: Lipid droplet formation in cultured DRG neurons (BODIPY staining); type: cell-based, mouse; settings: cultured adult DRG neurons, three days, vs DMSO vehicle
Procedure: DRG primary culture and replating were performed as previously described. In brief, for primary culture, L4-L6 DRGs from 7-8 weeks wild-type mice of both genders were dissected and then digested in 0.5% collagenase for 1.5 h. After termination of digestion, DRGs were pipetted 20-30 times in a tube for complete dissociation. Neurobasal-A with B27 as a supplement was used as a medium for DRG culture. Virus was added at 1 day in vitro (DIV1) for genetic manipulation. Atglistatin (10 μM), KLH-45 (1 μM), paradigastat (1 μM) or A-922500 (500 nM) treatment was used for ATGL, DDHD2 or DGAT1 inhibition.
For BODIPY staining on cultured DRG neurons, cells were first fixed in 4% PFA for 10 min and permeabilized with 0.1% Triton X-100 in 4% NGS. After cells were blocked, the Tuj1 antibody was applied in blocking buffer and incubated at 4° C. overnight. Coverslips were then washed three times with PBS and incubated with secondary antibodies at room temperature for 2 h. Cells were finally incubated with 200 nM BODIPY (Sigma) in blocking buffer for 30 min before mounting.
Experiments were performed to manipulate TG lipases in vitro. In cultured adult DRG neurons with vehicle treatment, lipid droplets were barely detected (FIG. 4B), consistent with the notion that neurons constantly turn over TGs with minimum storage. […] Then, the function of TG lipases was examined in axon regeneration in vivo. […]

[3] = system: sensory axons in the sciatic nerve; experiment: Sciatic nerve crush, sensory axon regeneration (SCG10 staining); type: in vivo, mouse; settings: WT mice, i.p. KLH-45 30 mg/kg/day, Atglistatin 40 mg/kg/day, 5 days before and 2 days after injury; two days regrowth
Procedure: KLH-45 (30 mg/kg/day) or Atglistatin (40 mg/kg/day) were delivered by intraperitoneal injection for 5 consecutive days before injury and 2 days after injury. The same dosage of DMSO injection was used as a control treatment. Sciatic nerve injury was performed as previously described. Briefly, after an incision was made on the skin at the middle thigh level, muscle was gently dissected to expose the sciatic nerve. Then, the sciatic nerve was crushed for 10 s by forceps (Dumont #2; Fine Science Tools). For the sham group, the sciatic nerve was only exposed but not crushed.
Sciatic nerve sections with SCG10 staining were used to quantify the regeneration index. A column with a width of 50 pixels was drawn at different distances from the lesion center, and the average intensity of SCG10 staining was measured using ImageJ. The distance between the lesion center and the column with half the intensity of the lesion center was considered as the regeneration index.
Consistently, Ddhd2 KD in isolated DRG neurons suppressed axon elongation in culture, and as a positive control Lipin1 KD increased the axon length. Then, vehicle KLH-45, or KLH-45 combined with Atglistatin was systematically administered into WT mice. The sciatic nerve was then crushed, and the sensory axons were allowed to regrow for two days before examination. […]

adult DRG neurons = experiment: Axon elongation of replated adult DRG neurons after shRNA/AAV treatment (Tuj1 staining, longest neurite); type: cell-based, mouse; settings: for effect on axon regrowth / axon growth of DRG neurons: shRNA in WT DRG neurons vs control shRNA
cortical neurons [4] = experiment: Lipid profile of cultured cortical neurons by UPLC-MS; type: cell-based, mouse
Procedure: (§1) Cortical neurons were cultured as previously described. In short, the cortex from E18 C57/B6 mice of both genders was dissected and digested in 0.5 mg/mL papain for 30 min. Then, 100 μL fetal bovine serum (HyClone) was added to inactivate papain. The cells were then placed into Neurobasal medium (Gibco), supplemented with B27 (Gibco) and 1% penicillin-streptomycin (10,000 U/mL; Gibco). AraC (100 nM; Sigma) was used to inhibit glial proliferation in DIV1-DIV3. After 10 days of culture with AAV-scramble, AAV-shLipin1, AAV-shDgat1 or AAV-shDgat2, cells were harvested, and then TG or PC levels were measured according to the manufacturer's protocol (ab65336 and ab83377).
Lipid extraction was performed using the Folch method. Cortical neurons were lysed in a 2:1 chloroform:methanol mixture. After the upper phase was siphoned, the solvent was dried by line blowing with nitrogen. Lipid extracts were analyzed using a Synapt G2 HDMS mass spectrometer coupled with an ACQUITY UPLC system (Waters, Milford, USA). The UPLC separation was carried out using a Charge Surface Hybrid column (particle size: 1.7 μm; length: 100 mm; i.d.: 2.1 mm). The mobile phase consisted of solvent A (0.1% formic acid in water, v/v) and solvent B (0.1% formic acid in acetonitrile, v/v), each with 10 mM ammonium acetate. The elution gradient conditions were as follows: 0 min, 40% B; 2 min, 43% B; 2-2.1 min, 50% B; 12 min, 54% B; 12.1 min, 70% B; 12.1-18 min, 99% B. The flow rate was 0.2 mL min^−1, and the injection volume was 2 μL. A two minutes post-run time was set to fully equilibrate the column. Column temperature and sample chamber temperature were set to 55° C. and 6° C., respectively. […]
Because PAP activity is critical for Lipin1-dependent axon growth, it was hypothesized that Lipin1 may control axon regrowth by regulating glycerolipid synthesis in neurons. […] Glycerolipid levels were directly measured after eliminating glial cells by adding cytosine arabinoside (AraC) to the culture. […] Lipid extraction of cortical neurons was analyzed by ultra-performance liquid chromatography-mass spectrometry (UPLC-MS) system. […]

cortical neurons [5] = experiment: Total TG and PC levels in cortical neurons by enzymatic hydrolysis assays; type: cell-based, mouse; settings: lipid hydrolysis assay, DGAT1 or DGAT2 depletion
Procedure: as §1
Because UPLC-MS might not identify all lipid molecular species, the total TG and PC levels were further measured by performing enzymatic hydrolysis assays. TG levels were decreased by 40% after Lipin1 depletion (FIG. 3E). […] Because injury triggers Lipin1 elevation in RGCs, the data on lipid changes after Lipin1 KD indicate that axotomy may program lipid metabolism to increase triglyceride and decrease PL production. This injury-triggered bias in lipid synthesis may contribute to the declined axon growth in CNS neurons. By depleting Lipin1, injured neurons may redirect two arms of the branch and shift lipid storage to membrane lipid production for axon regrowth.

[6] = after Dgat1 KD, compared to the control shRNA group

O=C(Nc1ccccc1)Nc1ccc(-c2ccc(C(=O)[C@@H]3CCC[C@H]3C(=O)O)cc2)cc1 [A-922500]
axon regrowth / axon regeneration in DRG neuron culture (DRG neurons [1]): demonstrated axon regrowth

CN(C)C(=O)Nc1cccc(-c2ccc(N(C)C)cc2)c1 [Atglistatin]
TG storage in neurons (lipid droplet formation) (DRG neurons [2]): dramatically increased TG storage
axon elongation in dissociated primary DRG neuron culture (DRG neurons [1]): significantly inhibited axon elongation

O=C(N(CCc1ccccc1)C1CCCCC1)n1ncc(-c2ccc(OC(F)(F)F)cc2)n1 [KLH-45]
TG storage in neurons (lipid droplet formation) (DRG neurons [2]): dramatically increased TG storage
axon elongation in dissociated primary DRG neuron culture (DRG neurons [1]): significantly inhibited axon elongation
spontaneous sensory axon regeneration after sciatic nerve crush [3]: modestly inhibited

O=C(O)C[C@H]1CC[C@H](c2ccc(-c3ccc(Nc4ccc(C(F)(F)F)nc4)cn3)cc2)CC1 [pradigastat]
axon regrowth / axon regeneration in DRG neuron culture (DRG neurons [1]): demonstrated axon regrowth

Lipin1 shRNA: short hairpin RNA against Lipin1, plasmid transfected into DRG neurons (CGGAACTCTGTAGACAGAAT)
axon elongation enhanced by (adult DRG neurons; shRNA plasmid transfected for three days, replated, fixed 24 h after replating, vs control shRNA): 20%

shDgat1: Dgat1 shRNA targeting SEQ ID NO: 8 (GCCCTTCAAGGATATGGACT; the letters are possibly those of the target site)
effect on axon regrowth / axon growth of DRG neurons (adult DRG neurons): significantly boosted axon growth
identified TG species levels (cortical neurons [4]; after Dgat1 KD vs control shRNA): decreased
PC(29:1) increase (cortical neurons [4]; [6]): more than eightfold
PC(36:2) increase (cortical neurons [4]; [6]): more than eightfold
PC content (cortical neurons [5]): increased
TG level in neurons (cortical neurons [5]): decreased the TG level

shDgat2: Dgat2 shRNA targeting SEQ ID NO: 9 (GCTACTTCCGAGACTACTTT; target site or template, no part of the molecule)
effect on axon regrowth / axon growth of DRG neurons (adult DRG neurons): significantly boosted axon growth
PC content (cortical neurons [5]): increased
TG level in neurons (cortical neurons [5]): decreased the TG level
